Patent US20220177538A1, “CO-AGONISTS AT GLP-1 AND GIP RECEPTORS SUITABLE FOR ORAL DELIVERY” (Novo Nordisk A/S, priority 2020, published 2022)
Read-outs that look alike come from different tables or passages of the source. Starred links: 1 amine or outer side, 2 acyl side, 3 side chain; linkers in the order of their positions; H or OH if unused. Non-standard residues stand in square brackets, D forms with d. Residues, ends and D or L forms follow the SMILES beside them. Groups on a side chain read outwards from the residue. *: point of attachment. C20 diacid = O=C(O)CCCCCCCCCCCCCCCCCCC(=O)*; C18 diacid = O=C(O)CCCCCCCCCCCCCCCCC(=O)*; γGlu = O=C(O)[C@H](CCC(=O)[*:2])N[*:1]; εLys = N[C@@H](CCCCN[*:1])C(=O)[*:2]; Aib = CC(C)(N)C(=O)O

Legend:
human GIP receptor = molecular target: T1, human GIP receptor (Homo sapiens, UniProt P48546); test: In vitro functional potency, CRE luciferase reporter, whole BHK cells (hGIPR); assay type: cell-based; conditions: BHK CRE luc2P hGIPR cells
T1 construct: expressed in transfected cells; host or cells: BHK (parent line BHKTS13), clone BHK CRE luc2P hGIPR
T1 sequence (P48546 22-466): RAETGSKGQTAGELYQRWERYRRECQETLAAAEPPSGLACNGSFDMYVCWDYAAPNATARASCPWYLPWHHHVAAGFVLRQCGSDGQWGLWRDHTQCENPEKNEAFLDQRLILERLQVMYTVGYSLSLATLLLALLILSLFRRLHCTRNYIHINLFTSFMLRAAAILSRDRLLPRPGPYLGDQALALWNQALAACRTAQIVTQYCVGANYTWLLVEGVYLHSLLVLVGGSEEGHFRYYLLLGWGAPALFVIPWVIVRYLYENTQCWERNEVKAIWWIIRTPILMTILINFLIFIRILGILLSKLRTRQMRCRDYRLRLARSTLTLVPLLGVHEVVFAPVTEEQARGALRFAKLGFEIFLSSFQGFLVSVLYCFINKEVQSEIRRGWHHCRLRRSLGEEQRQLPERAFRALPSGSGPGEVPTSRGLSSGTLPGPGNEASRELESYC
In short: (§1)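 Potencies are replicate means (n≥2) from non-linear log(agonist) vs response fits of CRE-driven luminescence. Cells were overnight-plated BHK CRE luc2P lines transfected with human GIPR or GLP-1R, 5000/well.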

[1] = Pharmacokinetic study in dogs after oral dosing of tablets with SNAC; assay type: in vivo, Beagle dogs; conditions: for half-life / Tmax: male
In short: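 The tablets held 3-4 mg compound plus 100-300 mg SNAC and were given to fasted male beagles (6-8 per group); non-compartmental PK per animal.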

human GLP-1 receptor = human GLP-1 receptor (Homo sapiens, UniProt P43220); test: In vitro functional potency, CRE luciferase reporter, whole BHK cells (hGLP-1R); assay type: cell-based; parameters: expressed in transfected cells; host or cells: BHK (parent line BHKTS13), clone BHK CRE luc2P hGLP-1R; conditions: BHK CRE luc2P hGLP-1R cells
human GLP-1 receptor, sequence (P43220 24-463): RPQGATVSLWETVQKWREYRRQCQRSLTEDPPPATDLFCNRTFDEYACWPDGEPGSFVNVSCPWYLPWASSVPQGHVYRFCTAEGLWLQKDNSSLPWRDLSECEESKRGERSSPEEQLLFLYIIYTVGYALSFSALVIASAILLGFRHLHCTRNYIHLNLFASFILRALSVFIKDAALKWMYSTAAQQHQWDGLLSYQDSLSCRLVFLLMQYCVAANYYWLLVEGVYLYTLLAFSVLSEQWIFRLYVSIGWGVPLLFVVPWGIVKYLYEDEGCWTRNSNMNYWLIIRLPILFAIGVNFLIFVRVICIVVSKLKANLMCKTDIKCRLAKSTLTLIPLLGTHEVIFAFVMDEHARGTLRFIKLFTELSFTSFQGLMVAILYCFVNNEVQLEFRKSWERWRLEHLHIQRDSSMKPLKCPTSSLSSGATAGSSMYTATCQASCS
In short: as §1

[2] = 0% HSA, read-out: hGIPR, CRE Luc 0% HSA EC50
[3] = hGIPR, CRE Luc 1% HSA EC50, 1% HSA
[4] = oral tablet, SNAC 100 mg, test substance 3 mg, Beagle dogs, arithmetic mean
[5] = 0% HSA, read-out: hGLP-1R, CRE Luc 0% HSA EC50
[6] = hGLP-1R, CRE Luc 1% HSA EC50, 1% HSA

SMILES | EC50 (human GIP receptor; [2]) | EC50 (human GIP receptor; [3]) | half-life ([1]; Beagle, dog, in vivo, po) | Tmax ([1]; dog, plasma, oral tablet, SNAC 100 mg, test substance 3 mg, Beagle dogs, median, read-out: Tmax) | AUC/Dose [1, 4] | Cmax/Dose [1, 4] | EC50 (human GLP-1 receptor; [5]) | EC50 (human GLP-1 receptor; [6]) | AUC/Dose ([1]; dog, in vivo, po) | Cmax/Dose ([1]; dog, in vivo, po) | Tmax ([1]; Beagle, dog, in vivo, po)
CC[C@H](C)[C@H](NC(=O)[C@H](Cc1ccccc1)NC(=O)[C@H](CCC(=O)O)NC(=O)[C@H](CCCNC(=N)N)NC(=O)[C@H](C)NC(=O)[C@H](C)NC(=O)[C@H](CCC(N)=O)NC(=O)[C@H](CCCCNC(=O)[C@@H](N)CCCCNC(=O)[C@@H](N)CCCCNC(=O)CC[C@H](NC(=O)CCCCCCCCCCCCCCCCC(=O)O)C(=O)O)NC(=O)[C@H](CCC(=O)O)NC(=O)[C@H](CC(C)C)NC(=O)[C@H](CC(C)C)NC(=O)[C@@H](NC(=O)[C@H](CO)NC(=O)[C@H](Cc1ccc(O)cc1)NC(=O)[C@H](CC(=O)O)NC(=O)[C@H](CO)NC(=O)[C@@H](NC(=O)[C@H](Cc1ccccc1)NC(=O)[C@@H](NC(=O)CNC(=O)[C@H](CCC(=O)O)NC(=O)C(C)(C)NC(=O)[C@@H](N)Cc1ccc(O)cc1)[C@@H](C)O)[C@@H](C)O)[C@@H](C)CC)C(=O)N[C@@H](CC(N)=O)C(=O)N[C@@H](Cc1c[nH]c2ccccc12)C(=O)N[C@@H](CC(C)C)C(=O)N[C@@H](CC(C)C)C(=O)N[C@@H](C)C(=O)NCC(=O)NCC(=O)N1CCC[C@H]1C(=O)N[C@@H](CO)C(=O)N[C@@H](CO)C(=O)O [Compound 20] (H-Y[Aib]EGTFTSDYSILLEK([εLys-εLys-γGlu-C18 diacid])QAAREFINWLLAGGPSS-OH) | 0.0071 nM | 0.247 nM | 56 h | 2 h | 10.8 kg·h/L | 0.21 kg/L | 0.0042 nM | 0.256 nM | – | – | –
CC[C@H](C)[C@H](NC(=O)[C@H](Cc1ccccc1)NC(=O)[C@H](CCC(=O)O)NC(=O)[C@H](CCC(N)=O)NC(=O)[C@H](C)NC(=O)[C@H](C)NC(=O)[C@H](CCC(N)=O)NC(=O)[C@H](CCCCNC(=O)[C@@H](N)CCCCNC(=O)[C@@H](N)CCCCNC(=O)CC[C@H](NC(=O)CCCCCCCCCCCCCCCCC(=O)O)C(=O)O)NC(=O)[C@H](CCC(=O)O)NC(=O)[C@H](CC(C)C)NC(=O)[C@H](CC(C)C)NC(=O)[C@@H](NC(=O)[C@H](CO)NC(=O)[C@H](Cc1ccc(O)cc1)NC(=O)[C@H](CC(=O)O)NC(=O)[C@H](CO)NC(=O)[C@@H](NC(=O)[C@H](Cc1ccccc1)NC(=O)[C@@H](NC(=O)CNC(=O)[C@H](CCC(=O)O)NC(=O)C(C)(C)NC(=O)[C@@H](N)Cc1ccc(O)cc1)[C@@H](C)O)[C@@H](C)O)[C@@H](C)CC)C(=O)N[C@@H](CC(N)=O)C(=O)N[C@@H](Cc1c[nH]c2ccccc12)C(=O)N[C@@H](CC(C)C)C(=O)N[C@@H](CC(C)C)C(=O)N[C@@H](C)C(=O)NCC(=O)NCC(=O)N1CCC[C@H]1C(=O)N[C@@H](CO)C(=O)N[C@@H](CO)C(=O)NCC(=O)N[C@@H](C)C(=O)N1CCC[C@H]1C(=O)N1CCC[C@H]1C(=O)N1CCC[C@H]1C(=O)N[C@@H](CO)C(=O)O [Compound 24] (H-Y[Aib]EGTFTSDYSILLEK([εLys-εLys-γGlu-C18 diacid])QAAQEFINWLLAGGPSSGAPPPS-OH) | 0.0039 nM | 0.115 nM | 74 h | – | – | – | 0.0121 nM | 0.49 nM | 16.4 kg·h/L | 0.29 kg/L | 1.8 h
CC[C@H](C)[C@H](NC(=O)[C@H](Cc1ccccc1)NC(=O)[C@H](CCC(=O)O)NC(=O)[C@H](CCCNC(=N)N)NC(=O)[C@H](C)NC(=O)[C@H](C)NC(=O)[C@H](CCC(N)=O)NC(=O)[C@H](CCCCNC(=O)[C@@H](N)CCCCNC(=O)[C@@H](N)CCCCNC(=O)CC[C@H](NC(=O)CCCCCCCCCCCCCCCCCCC(=O)O)C(=O)O)NC(=O)[C@H](CCC(=O)O)NC(=O)[C@H](CC(C)C)NC(=O)[C@H](Cc1ccc(O)cc1)NC(=O)[C@@H](NC(=O)[C@H](CO)NC(=O)[C@H](Cc1ccc(O)cc1)NC(=O)[C@H](CC(=O)O)NC(=O)[C@H](CO)NC(=O)[C@@H](NC(=O)[C@H](Cc1ccccc1)NC(=O)[C@@H](NC(=O)CNC(=O)[C@H](CCC(=O)O)NC(=O)C(C)(C)NC(=O)[C@@H](N)Cc1ccc(O)cc1)[C@@H](C)O)[C@@H](C)O)[C@@H](C)CC)C(=O)N[C@@H](CC(N)=O)C(=O)N[C@@H](Cc1c[nH]c2ccccc12)C(=O)N[C@@H](CC(C)C)C(=O)N[C@@H](CC(C)C)C(=O)N[C@@H](C)C(=O)NCC(=O)NCC(=O)N1CCC[C@H]1C(=O)N[C@@H](CO)C(=O)N[C@@H](CO)C(=O)NCC(=O)N[C@@H](C)C(=O)N1CCC[C@H]1C(=O)N1CCC[C@H]1C(=O)N1CCC[C@H]1C(=O)N[C@@H](CO)C(=O)O [Compound 16] (H-Y[Aib]EGTFTSDYSIYLEK([εLys-εLys-γGlu-C20 diacid])QAAREFINWLLAGGPSSGAPPPS-OH) | 0.0134 nM | 0.804 nM | 47 h | – | – | – | 0.0031 nM | 0.321 nM | 8.6 kg·h/L | 0.21 kg/L | 1.3 h
CC[C@H](C)[C@H](NC(=O)[C@H](Cc1ccccc1)NC(=O)[C@H](CCC(=O)O)NC(=O)[C@H](CCCNC(=N)N)NC(=O)[C@H](C)NC(=O)[C@H](C)NC(=O)[C@H](CCC(N)=O)NC(=O)[C@H](CCC(=O)O)NC(=O)[C@H](CCC(=O)O)NC(=O)[C@H](CC(C)C)NC(=O)[C@H](CC(C)C)NC(=O)[C@H](CCCCNC(=O)[C@@H](N)CCCCNC(=O)[C@@H](N)CCCCNC(=O)CC[C@H](NC(=O)CCCCCCCCCCCCCCCCC(=O)O)C(=O)O)NC(=O)[C@H](CO)NC(=O)[C@H](Cc1ccc(O)cc1)NC(=O)[C@H](CC(=O)O)NC(=O)[C@H](CO)NC(=O)[C@@H](NC(=O)[C@H](Cc1ccccc1)NC(=O)[C@@H](NC(=O)CNC(=O)[C@H](CCC(=O)O)NC(=O)C(C)(C)NC(=O)[C@@H](N)Cc1ccc(O)cc1)[C@@H](C)O)[C@@H](C)O)C(=O)N[C@@H](CCC(=O)O)C(=O)N[C@@H](Cc1c[nH]c2ccccc12)C(=O)N[C@@H](CC(C)C)C(=O)N[C@@H](CC(C)C)C(=O)N[C@@H](C)C(=O)NCC(=O)NCC(=O)N1CCC[C@H]1C(=O)N[C@@H](CO)C(=O)N[C@@H](CO)C(=O)NCC(=O)N[C@@H](C)C(=O)N1CCC[C@H]1C(=O)N1CCC[C@H]1C(=O)N1CCC[C@H]1C(=O)N[C@@H](CO)C(=O)O [Compound 40] | 0.0095 nM | 0.501 nM | 61 h | – | – | – | 0.0064 nM | 0.334 nM | 27.0 kg·h/L | 0.48 kg/L | 2 h
CC[C@H](C)[C@H](NC(=O)[C@H](Cc1ccccc1)NC(=O)[C@H](CCC(=O)O)NC(=O)[C@H](CCC(=O)O)NC(=O)[C@H](C)NC(=O)[C@H](C)NC(=O)[C@H](CCC(N)=O)NC(=O)[C@H](CCCCNC(=O)[C@@H](N)CCCCNC(=O)[C@@H](N)CCCCNC(=O)CC[C@H](NC(=O)CCCCCCCCCCCCCCCCC(=O)O)C(=O)O)NC(=O)[C@H](CCC(=O)O)NC(=O)[C@H](CC(C)C)NC(=O)[C@H](CC(C)C)NC(=O)[C@@H](NC(=O)[C@H](CO)NC(=O)[C@H](Cc1ccc(O)cc1)NC(=O)[C@H](CC(=O)O)NC(=O)[C@H](CO)NC(=O)[C@@H](NC(=O)[C@H](Cc1ccccc1)NC(=O)[C@@H](NC(=O)CNC(=O)[C@H](CCC(=O)O)NC(=O)C(C)(C)NC(=O)[C@@H](N)Cc1ccc(O)cc1)[C@@H](C)O)[C@@H](C)O)[C@@H](C)CC)C(=O)N[C@@H](CC(N)=O)C(=O)N[C@@H](Cc1c[nH]c2ccccc12)C(=O)N[C@@H](CC(C)C)C(=O)N[C@@H](CC(C)C)C(=O)N[C@@H](C)C(=O)NCC(=O)NCC(=O)N1CCC[C@H]1C(=O)N[C@@H](CO)C(=O)N[C@@H](CO)C(=O)NCC(=O)N[C@@H](C)C(=O)N1CCC[C@H]1C(=O)N1CCC[C@H]1C(=O)N1CCC[C@H]1C(=O)N[C@@H](CO)C(=O)O [Compound 25] (H-Y[Aib]EGTFTSDYSILLEK([εLys-εLys-γGlu-C18 diacid])QAAEEFINWLLAGGPSSGAPPPS-OH) | 0.0072 nM | 0.263 nM | 43 h | – | – | – | 0.0155 nM | 0.74 nM | 15.2 kg·h/L | 0.30 kg/L | 1.8 h
